Measured values taken from paper PMC13334477 (RSC Medicinal Chemistry, 2026).

Tests used:
[1] = system: Htel-FT (human telomeric DNA G4); assay: FRET melting assay, Htel-FT; format: binding; conditions: ligand 1 μM, DNA 0.2 μM
Procedure: Doubly labelled oligonucleotides with fluorescein and TAMRA were purchased lyophilized and RP-cartridge purified from Eurogentec (Kanaka Eurogentec, Seraing, Belgium). FRET melting experiments were run on Stratagene Mx3005P real-time PCR equipment in 96-well plates on the DNA sequences listed Table 1. Experiments were performed in 10 mM lithium cacodylate buffer (pH 7.2) and 10 mM KCl and 90 mM LiCl as previously described.[45,46] The DNA concentration was 0.2 μM. The stabilization (ΔT1/2) induced by compounds was calculated as the difference between the Tm of the nucleic acid alone and that measured with a ligand concentration of 1 μM. Data are presented as averages of three independent measurements, each conducted in duplicate (λexc = 492 nm, λem = 516 nm, T interval = 25–95 °C, ramp: 25 °C for 5 min, then 1 °C min^−1, measurements every 1 °C, 8× magnification of the fluorescence signal). The G4 selectivity of the ligands with respect to the duplex was evaluated by determining the Tm values in the presence of 0, 3 or 10 μM of the duplex competitor ds26.
In this assay, we performed thermal denaturation experiments by heating and recording the fluorescence of DNA oligonucleotides doubly labelled with fluorescein and TAMRA fluorophores (Fig. 3 and S7). Ligand binding to the G4 stabilises the structure, resulting in an increase in the half-dissociation temperature of the structure (ΔT1/2). As a first approximation, the higher the ΔT1/2 (ΔT1/2 higher), the higher the affinity of the ligand for the target.[45]
The fluorescently labeled oligonucleotides were dissolved at a concentration of 0.2 μM in 10 mM lithium cacodylate buffer (pH 7.2) with 10 mM KCl and 90 mM LiCl. […] E) Radar plot representation that summarizes the FRET-melting results (ΔT1/2 (°C)) for each ligand in the presence of HIVpro1-FT (green), HIVpro2-FT (grey), LTR4-FT (bleu), and Htel-FT (red). Data are the results of at least three independent experiments in which each data point was performed in duplicate.

[2] = system: G4T4G4 (DNA, G4) GGGGTTTTGGGG; assay: native ESI-MS; conditions: 100 mM ammonium acetate (NH4+), no K+; apparent, site 1 of 2; 10 μM DNA, 20 μM ligand, 4 °C incubation
[3] = Cell viability assay (CellTiter 96 AQueous One); format: cell-based; conditions: human, at 1.56 μM
[4] = system: HIV-1; conditions: at 1.56 μM
[5] = system: Htel (DNA, G4) AGGGTTAGGGTTAGGGTTAGGG; assay: native ESI-MS; conditions: 100 mM ammonium acetate (NH4+), no K+; apparent, site 1 of 2; 10 μM DNA, 20 μM ligand, 4 °C incubation

Structure (SMILES) | ΔT1/2 Htel ([1]; +10µM ds26) [°C] | ΔT1/2 Htel ([1]; No ds26) [°C] | Kd1 [2] [µM] | viability at 24 h, 1.56 µM [3] [%] | reduction of viral infectivity [4] | Kd1 [5] [µM]
COc1ccc2c(ccc3c2cc2c4ccc(OC)cc4ccc2[n+]3-c2ccccc2)c1 [DBA1] | 13±0.5 | 17±0.2 |  |  |  | 
COC(=O)c1ccc(-[n+]2c3ccc4cc(OC)ccc4c3cc3c4ccc(OC)cc4ccc32)cc1 [DBA2] | 12±0.6 |  |  |  |  | 
COc1ccc(-[n+]2c3ccc4cc(OC)ccc4c3cc3c4ccc(OC)cc4ccc32)cc1 [DBA3] | 14±0.1 |  | 36.88 |  |  | 
COc1ccc2c(ccc3c2cc2c4ccc(OC)cc4ccc2[n+]3-c2ccc([N+](=O)[O-])cc2)c1 [DBA4] | 14±0.3 |  |  | 100 | approximately 20% | 11.21
c1ccc(-[n+]2c3ccc4ccccc4c3cc3c4ccccc4ccc32)cc1 [DBA5] | 9.0±0.1 | 12.2±0.1 |  | 100 | ~40% | 14.47
